# Measurements published in patent publication US20090053741A1 (priority 2005, published 2009).
# Tests used:
# [1] = test system: nitric oxide synthase; settings: cited from earlier work; for inhibition of NOS (in words): background statement
# [2] = biological target: T1, iNOS (Mus musculus, UniProt P29477); assay: [14C]L-NMMA binding to lysates of cytokine-stimulated J774 cells (iNOS lysate), filter assay; settings: excess 1000-fold L-NMMA, FIG. 1, preliminary
# T1 sequence (P29477 1-1144): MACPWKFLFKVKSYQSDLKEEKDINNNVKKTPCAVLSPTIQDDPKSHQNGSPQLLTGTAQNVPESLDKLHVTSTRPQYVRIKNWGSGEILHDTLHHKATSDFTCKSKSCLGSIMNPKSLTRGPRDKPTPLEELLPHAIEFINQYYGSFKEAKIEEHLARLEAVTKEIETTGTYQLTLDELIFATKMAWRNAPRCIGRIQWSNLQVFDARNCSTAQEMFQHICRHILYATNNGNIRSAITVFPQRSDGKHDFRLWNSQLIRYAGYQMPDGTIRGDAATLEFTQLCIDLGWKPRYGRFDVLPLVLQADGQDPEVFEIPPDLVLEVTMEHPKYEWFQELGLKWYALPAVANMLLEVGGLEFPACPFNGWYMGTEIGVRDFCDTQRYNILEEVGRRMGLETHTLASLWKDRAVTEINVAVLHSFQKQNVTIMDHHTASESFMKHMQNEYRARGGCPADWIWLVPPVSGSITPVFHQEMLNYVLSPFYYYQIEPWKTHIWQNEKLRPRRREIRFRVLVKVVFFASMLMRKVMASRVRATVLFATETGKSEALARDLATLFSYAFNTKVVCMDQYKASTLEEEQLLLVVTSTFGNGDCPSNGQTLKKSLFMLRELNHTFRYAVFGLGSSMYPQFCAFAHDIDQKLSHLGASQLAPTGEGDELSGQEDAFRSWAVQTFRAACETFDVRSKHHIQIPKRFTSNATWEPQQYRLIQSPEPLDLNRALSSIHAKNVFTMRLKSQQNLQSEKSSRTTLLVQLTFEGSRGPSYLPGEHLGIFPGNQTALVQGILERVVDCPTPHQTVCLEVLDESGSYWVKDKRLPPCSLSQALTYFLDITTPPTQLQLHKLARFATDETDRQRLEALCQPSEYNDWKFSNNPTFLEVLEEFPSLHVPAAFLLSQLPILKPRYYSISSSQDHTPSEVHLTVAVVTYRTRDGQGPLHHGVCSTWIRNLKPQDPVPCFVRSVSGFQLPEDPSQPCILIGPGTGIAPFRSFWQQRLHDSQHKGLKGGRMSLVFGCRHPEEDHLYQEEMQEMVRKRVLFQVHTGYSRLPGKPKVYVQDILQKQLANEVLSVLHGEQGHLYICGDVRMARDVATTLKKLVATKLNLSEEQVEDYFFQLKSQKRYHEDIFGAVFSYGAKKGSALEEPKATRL
# Procedure: A=J774 stimulated, B=J774 stimulated+L-NMMA, C=control and D=control+L-NMMA.
# Macrophages (J774 cells) were stimulated with a cytokine cocktail (LPS/IFN/TNF) for 24 h, to induce iNOS expression, and cell lysates were collected. […] Low molecular weight molecules were removed from lysates using 30000 MW cut-off filters. Lysates were incubated on 3000 MW filters with [^14C]L-NMMA for 15 min ([…] L-NMMA), washed 3× with cold TRIS buffer and filters counted.
# [3] = biological target: T2, bsNOS fragment (bacillus subtilis nitric oxide synthase oxygenase domain) (Bacillus subtilis, UniProt O34453); assay: [14C]L-NMMA binding to bsNOS fragment on 30000 MW cut off filters; settings: 1000-fold excess unlabelled L-NMMA, FIG. 2, preliminary
# T2 construct: made in house
# Procedure: (§1) A=Control and B=excess L-NMMA.
# A bacillus subtilis nitric oxide synthase oxygenase domain (“fragment”) was PCR amplified from genomic DNA with Nde1 and BamH1 sites added at the 5′ and 3′ ends respectively and cloned into pET15b vector. The bsNOS fragment corresponded to SEQ ID NO: 2 and was purified as previously described (Pant et al., Biochemistry; 2002; 41:11071-11079).
# [^14C]L-NMMA (3.75 nmol) was incubated with the bsNOS fragment ([…]) on 30000 MW cut off filters in the presence and absence (Control) of 1000-fold excess unlabelled L-NMMA.
# [4] = biological target: T2, bsNOS fragment (bacillus subtilis nitric oxide synthase oxygenase domain); assay: bsNOS binding to [14C]L-NMMA, PVDF filters with rapid washes; settings: L-NMMA 1 mM, FIG. 3
# Procedure: as §1
# A modified method previously described for binding [3H]nitroarginine to mammalian NOS was used to ensure rapid washes of the bsNOS fragment complexes and ligand to reduce time for dissociation (Liu Q and Gross S S, Methods Enzymol. 1996; 268:311-24). [^14C]L-NMMA ([…] −20000 counts total) was incubated with the bsNOS fragment ([…]) in assay buffer containing: 50 mM Tris pH 7.6; 50 uM BH4, 0.5 mM DTT. Reactants were incubated for 15 min at room temperature and NOS-bound [^14C]L-NMMA was separated from free [^14C]L-NMMA using PVDF filters and 3×1 ml rapid washes in cold Tris pH 7.6. Background was determined by the addition of 1 mM L-NMMA to bsNOS in assay buffer. Filters were added to 5 ml scintillation cocktail and counted in scintillation counter (Beckmann).
# [5] = test system: DDAH; assay: ADMA binding to DDAH (initial studies; equilibrium dialysis and calorimetry)
# Excerpt: Secondly, the researchers tried to improve the binding of ADMA to DDAH through mutagenesis. Three more mutations were generated in E114 and around this residue. These were E114D, E114D+A115G, L18H (residue in the loop) and P80A. […] Other mutations around the active site were also generated: L161F, G116A, G116V and G116T.
# Thirdly, the researchers tried to calculate a Kd for ADMA of DDAH using nuclear magnetic resonance imaging using the C249S or H162A mutant. […] Fourthly, the researchers tried a fluorophore (fluoresceine 5 maleimide or acrylodan) approach to measure the Kd for ADMA. […] Finally, the researchers generated four mutations with tryptophan: V15W and D16W (in the loop) as well as F58W and E90W (close to the active site). These four residues move in the NMR spectrum when inhibitors bind to the protein.
# T2 sequence (O34453 other isoform, or with tags, fused parts or gaps with the stated changes): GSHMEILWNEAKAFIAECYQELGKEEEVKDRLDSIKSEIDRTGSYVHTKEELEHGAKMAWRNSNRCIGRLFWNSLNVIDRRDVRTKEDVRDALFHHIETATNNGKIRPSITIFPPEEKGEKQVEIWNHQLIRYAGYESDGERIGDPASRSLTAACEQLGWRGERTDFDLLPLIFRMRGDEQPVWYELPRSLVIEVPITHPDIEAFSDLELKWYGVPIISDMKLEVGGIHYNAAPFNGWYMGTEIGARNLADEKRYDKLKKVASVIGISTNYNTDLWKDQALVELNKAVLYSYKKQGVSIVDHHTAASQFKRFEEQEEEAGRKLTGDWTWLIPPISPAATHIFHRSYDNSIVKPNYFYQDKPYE
smiles,measurement,setting,value
N=C(N)NCCC[C@H](N)C(=O)O [arginine],Km,"[1]; nitric oxide synthase, the 3 enzymes, read-out: Km for arginine",7 to 19 µM
"CNC(=N)NCCC[C@H](N)C(=O)O [L-NMMA, N^G-monomethyl-L-arginine]",competition of [14C]L-NMMA binding by unlabelled ligand,[2],competed out
same,competition of [14C]L-NMMA binding by unlabelled ligand,[3],competed out
same,[14C]L-NMMA binding in the presence of unlabelled ligand,[4],reduced to background
same,inhibition of NOS (in words),[1],equipotent
"CN(C)C(=N)NCCCC(N)C(=O)O (stereo not drawn) [ADMA, asymmetric dimethylarginine]",saturation of DDAH in calorimetry experiments,"[5]; inactive mutations C249S, H162A, E114Q, very high concentrations of ADMA (10 mM)",saturation was never reached
same,concentrations necessary to get binding to DDAH,[5]; initial studies,millimolar concentrations
same,inhibition of NOS (in words),[1],equipotent
"CN=C(NC)NCCC[C@H](N)C(=O)O [SDMA, symmetric dimethylarginine]",inhibition of NOS (in words),[1],does not inhibit NOS
